In patent US20220323425A1, “CO-POTENTIATORS FOR THERAPY OF CYSTIC FIBROSIS CAUSED BY MINIMAL FUNCTION CFTR MUTANTS” (THE REGENTS OF THE UNIVERSITY OF CALIFORNIA, priority 2019, published 2022):
Like-named read-outs stand apart in the source and are kept apart here.

Tests used:
Assay type in all cases: cell-based
W1282X-CFTR = target: T1, W1282X-CFTR (Homo sapiens, UniProt P13569); experiment: Structure-activity testing of co-potentiator analogs in FRT cells expressing W1282X-CFTR; settings: for Relative Vmax (%)*: 100% Vmax corresponds to 20 μM ASP-11; for EC50: FRT cells expressing W1282X-CFTR
T1 construct: CFTR1281 (the truncation product generated by W1282X-CFTR); expressed in transfected cells
T1 sequence (P13569 1-1281 limits assumed): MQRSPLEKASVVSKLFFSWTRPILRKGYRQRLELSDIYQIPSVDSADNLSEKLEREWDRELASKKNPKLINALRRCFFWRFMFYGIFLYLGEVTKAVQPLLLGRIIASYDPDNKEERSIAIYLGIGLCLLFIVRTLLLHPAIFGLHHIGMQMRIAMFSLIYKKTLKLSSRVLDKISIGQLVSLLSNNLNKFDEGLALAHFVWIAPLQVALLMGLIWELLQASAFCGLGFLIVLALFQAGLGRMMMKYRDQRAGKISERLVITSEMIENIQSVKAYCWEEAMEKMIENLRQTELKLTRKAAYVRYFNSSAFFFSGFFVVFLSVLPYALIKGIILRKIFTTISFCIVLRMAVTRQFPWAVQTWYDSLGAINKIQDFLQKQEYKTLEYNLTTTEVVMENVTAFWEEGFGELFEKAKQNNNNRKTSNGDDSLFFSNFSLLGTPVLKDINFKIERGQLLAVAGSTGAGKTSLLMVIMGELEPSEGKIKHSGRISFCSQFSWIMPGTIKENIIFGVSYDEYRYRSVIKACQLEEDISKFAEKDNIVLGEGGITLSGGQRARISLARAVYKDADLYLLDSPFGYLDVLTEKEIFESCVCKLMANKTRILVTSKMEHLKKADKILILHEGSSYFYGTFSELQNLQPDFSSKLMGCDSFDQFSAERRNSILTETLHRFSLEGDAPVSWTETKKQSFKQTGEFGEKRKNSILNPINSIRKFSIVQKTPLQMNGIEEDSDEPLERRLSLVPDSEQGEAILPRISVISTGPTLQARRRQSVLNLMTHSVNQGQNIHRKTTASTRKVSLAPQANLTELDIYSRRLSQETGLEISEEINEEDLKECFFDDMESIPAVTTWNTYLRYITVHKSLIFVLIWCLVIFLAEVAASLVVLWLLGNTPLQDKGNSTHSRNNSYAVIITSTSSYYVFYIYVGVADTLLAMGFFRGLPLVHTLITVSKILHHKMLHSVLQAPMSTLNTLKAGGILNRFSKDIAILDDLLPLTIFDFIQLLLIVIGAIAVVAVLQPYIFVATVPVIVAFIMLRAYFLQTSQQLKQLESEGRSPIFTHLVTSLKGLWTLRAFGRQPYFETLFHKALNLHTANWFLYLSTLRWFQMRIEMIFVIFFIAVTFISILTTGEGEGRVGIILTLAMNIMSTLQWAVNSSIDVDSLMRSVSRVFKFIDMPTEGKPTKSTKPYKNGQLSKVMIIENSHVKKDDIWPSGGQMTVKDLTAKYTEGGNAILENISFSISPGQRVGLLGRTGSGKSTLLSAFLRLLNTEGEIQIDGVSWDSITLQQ
Procedure: To establish structure-activity relationships, 240 commercially available spiro[piperidine-4,1pyrido[3,4-b]indoles]analogs and 160 pyrazoloquinoline analogs were tested in FRT cells expressing W 1282X-CFTR. FIG. 5A summarizes the structural determinants for activity for the spiro[piperidine-4,1pyrido[3,4-b]indoles] reported in Table 1A (CP-Axxx designations).
High-throughput screening used a semi-automated screening platform (Beckman, Fullerton, Calif.) as described (Haggie, 2017). FRT cells expressing W1282X and YFP were plated in 96-well black-walled, clear-bottom tissue culture plates (Corning) at a density of 20,000 cells/well and grown for 24 h at 37° C. to ˜90% confluency. Cells were treated with 3 μM VX-809 for 24 hours. Cells were then washed twice with PBS, and incubated in 100 μl of PBS containing forskolin (10 μM), VX-770 (15 nM) and test compounds (25 μM) for 10 min prior to assay of CFTR activity. All plates contained wells with positive (5 μM VX-770+20 μM ASP-11) and negative (5 μM VX-770) controls. Assays were done using a BMG Labtech FLUOstar OMEGA plate reader (Cary, N.C.) over 12 s with initial fluorescence intensity recorded for 2 s prior to addition of 100 μl of NaI-substituted PBS (137 mM NaCl replaced with NaI). Initial iodide influx was computed from fluorescence intensity by single exponential regression. […]
(§1) GraphPad Prism software (GraphPad Inc., San Diego, Calif., USA) was used for statistical analysis. EC50 values were determined by non-linear regression to a single-site inhibition model. Statistical significance was determined using unpaired Student's t test, with P<0.05 considered significant.

N1303K-CFTR = N1303K-CFTR (Homo sapiens, UniProt P13569, N1303K); experiment: Short-circuit current in FRT cells expressing N1303K-CFTR; parameters: expressed in transfected cells; host or cells: Fischer rat thyroid (FRT) cells; settings: for EC50 / Relative Vmax (%)*: Table 1B; for EC50: cell line not given; for Relative Vmax (%)*: footnote to * not given; for short-circuit current response when added after VX-770: 20 μM forskolin, 5 μM VX-770, 20 μM test potentiator
Chain of N1303K-CFTR (P13569 whole entry N1303K): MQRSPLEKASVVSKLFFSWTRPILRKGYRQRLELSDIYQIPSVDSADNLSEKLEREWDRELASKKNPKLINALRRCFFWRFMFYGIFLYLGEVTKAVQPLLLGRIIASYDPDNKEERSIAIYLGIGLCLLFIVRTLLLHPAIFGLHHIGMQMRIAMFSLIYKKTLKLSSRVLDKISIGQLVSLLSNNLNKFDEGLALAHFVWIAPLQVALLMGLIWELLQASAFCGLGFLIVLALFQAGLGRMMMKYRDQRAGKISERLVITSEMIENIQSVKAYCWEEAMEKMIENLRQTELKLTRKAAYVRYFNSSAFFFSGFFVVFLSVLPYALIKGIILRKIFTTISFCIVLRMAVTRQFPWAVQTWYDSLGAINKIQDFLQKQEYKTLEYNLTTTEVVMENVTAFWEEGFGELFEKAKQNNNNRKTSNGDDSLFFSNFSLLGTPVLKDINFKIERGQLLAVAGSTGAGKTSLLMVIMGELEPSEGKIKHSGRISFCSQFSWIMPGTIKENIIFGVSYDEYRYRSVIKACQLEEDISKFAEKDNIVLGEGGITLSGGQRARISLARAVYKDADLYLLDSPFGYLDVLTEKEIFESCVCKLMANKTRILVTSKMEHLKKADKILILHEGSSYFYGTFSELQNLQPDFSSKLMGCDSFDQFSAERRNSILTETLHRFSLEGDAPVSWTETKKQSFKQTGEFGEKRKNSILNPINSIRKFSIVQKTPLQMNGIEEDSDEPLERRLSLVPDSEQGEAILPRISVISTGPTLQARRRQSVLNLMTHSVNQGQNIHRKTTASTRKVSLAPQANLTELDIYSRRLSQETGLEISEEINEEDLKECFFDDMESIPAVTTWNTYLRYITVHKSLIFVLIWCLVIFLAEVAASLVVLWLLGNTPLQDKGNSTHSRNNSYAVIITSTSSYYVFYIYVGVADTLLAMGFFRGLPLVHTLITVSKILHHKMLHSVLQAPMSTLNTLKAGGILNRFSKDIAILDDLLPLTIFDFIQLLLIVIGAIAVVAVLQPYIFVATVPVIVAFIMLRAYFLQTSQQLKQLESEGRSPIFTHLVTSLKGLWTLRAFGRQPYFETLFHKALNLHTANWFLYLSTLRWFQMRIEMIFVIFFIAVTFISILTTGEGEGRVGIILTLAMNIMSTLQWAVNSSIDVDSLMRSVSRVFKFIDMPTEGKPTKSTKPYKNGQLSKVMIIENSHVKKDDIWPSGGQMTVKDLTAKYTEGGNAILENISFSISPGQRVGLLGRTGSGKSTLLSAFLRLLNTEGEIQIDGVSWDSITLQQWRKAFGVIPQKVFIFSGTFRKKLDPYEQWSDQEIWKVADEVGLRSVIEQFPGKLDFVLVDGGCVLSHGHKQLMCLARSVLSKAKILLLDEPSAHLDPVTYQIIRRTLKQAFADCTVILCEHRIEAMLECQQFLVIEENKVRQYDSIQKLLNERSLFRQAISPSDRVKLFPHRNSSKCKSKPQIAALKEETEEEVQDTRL
Procedure: (§2) Short-circuit current was measured on cells cultured on permeable supports (Corning) as described (Haggie, 2017; Phuan, 2018). For FRT cells, the basolateral membrane was permeabilized with 250 μg/mL amphotericin B, and experiments were done using a HCO3^−-buffered system (in mM: 120 NaCl, 5 KCl, 1 MgCl2, 1 CaCl2), 5 Hepes, 25 NaHCO3, 10 glucose, pH 7.4) with a basolateral to apical chloride gradient (60 mM NaCl replaced by sodium gluconate in the apical solution). For human airway epithelial cells, symmetrical HCO3^−-buffered solutions (containing 120 mM NaCl) were used. Cells were equilibrated with 95% O2, 5% CO2 and maintained at 37° C. Hemichambers were connected to a DVC-1000 voltage clamp (World Precision Instruments Inc., Sarasota, Fla.) via Ag/AgCl electrodes and 3 M KCl agar bridges for recording of the short-circuit current.
as §1
Co-potentiator efficacy was initially determined by short-circuit current measurements in FRT cells expressing N1303K-CFTR in the presence of a transepithelial chloride gradient and with permeabilization of the basolateral cell membrane such that measured current directly reports CFTR channel activity. […] We previously defined potentiators as either class I compounds, including VX-770 and GLPG1837, or class II compounds such as the arylsulphonamide-pyrrolopyridine and spiro[piperidine-4,1-pyrido[3,4-b]indole] copotentiators that probably bind at distinct sites on CFTR. N1303K-CFTR expressing FRT cells treated with forskolin and GLPG1837 had similar 2i co-potentiator EC50 of 0.8±0.2 μM (FIG. 7B).

Q1313X-CFTR = target: T2, Q1313X-CFTR (Homo sapiens, UniProt P13569); experiment: Short-circuit current in FRT cells expressing Q1313X-CFTR; settings: 20 μM forskolin; for short-circuit current response when added after VX-770: 5 μM VX-770, 25 μM apigenin, others 20 μM
T2 construct: several truncated forms of CFTR resulting from premature termination codons (PTCs) located in NBD2; expressed in transfected cells; host or cells: FRT cells, pIRESpuro3 vector, puromycin-selected clonal lines
T2 sequence (P13569 1-1312 limits assumed): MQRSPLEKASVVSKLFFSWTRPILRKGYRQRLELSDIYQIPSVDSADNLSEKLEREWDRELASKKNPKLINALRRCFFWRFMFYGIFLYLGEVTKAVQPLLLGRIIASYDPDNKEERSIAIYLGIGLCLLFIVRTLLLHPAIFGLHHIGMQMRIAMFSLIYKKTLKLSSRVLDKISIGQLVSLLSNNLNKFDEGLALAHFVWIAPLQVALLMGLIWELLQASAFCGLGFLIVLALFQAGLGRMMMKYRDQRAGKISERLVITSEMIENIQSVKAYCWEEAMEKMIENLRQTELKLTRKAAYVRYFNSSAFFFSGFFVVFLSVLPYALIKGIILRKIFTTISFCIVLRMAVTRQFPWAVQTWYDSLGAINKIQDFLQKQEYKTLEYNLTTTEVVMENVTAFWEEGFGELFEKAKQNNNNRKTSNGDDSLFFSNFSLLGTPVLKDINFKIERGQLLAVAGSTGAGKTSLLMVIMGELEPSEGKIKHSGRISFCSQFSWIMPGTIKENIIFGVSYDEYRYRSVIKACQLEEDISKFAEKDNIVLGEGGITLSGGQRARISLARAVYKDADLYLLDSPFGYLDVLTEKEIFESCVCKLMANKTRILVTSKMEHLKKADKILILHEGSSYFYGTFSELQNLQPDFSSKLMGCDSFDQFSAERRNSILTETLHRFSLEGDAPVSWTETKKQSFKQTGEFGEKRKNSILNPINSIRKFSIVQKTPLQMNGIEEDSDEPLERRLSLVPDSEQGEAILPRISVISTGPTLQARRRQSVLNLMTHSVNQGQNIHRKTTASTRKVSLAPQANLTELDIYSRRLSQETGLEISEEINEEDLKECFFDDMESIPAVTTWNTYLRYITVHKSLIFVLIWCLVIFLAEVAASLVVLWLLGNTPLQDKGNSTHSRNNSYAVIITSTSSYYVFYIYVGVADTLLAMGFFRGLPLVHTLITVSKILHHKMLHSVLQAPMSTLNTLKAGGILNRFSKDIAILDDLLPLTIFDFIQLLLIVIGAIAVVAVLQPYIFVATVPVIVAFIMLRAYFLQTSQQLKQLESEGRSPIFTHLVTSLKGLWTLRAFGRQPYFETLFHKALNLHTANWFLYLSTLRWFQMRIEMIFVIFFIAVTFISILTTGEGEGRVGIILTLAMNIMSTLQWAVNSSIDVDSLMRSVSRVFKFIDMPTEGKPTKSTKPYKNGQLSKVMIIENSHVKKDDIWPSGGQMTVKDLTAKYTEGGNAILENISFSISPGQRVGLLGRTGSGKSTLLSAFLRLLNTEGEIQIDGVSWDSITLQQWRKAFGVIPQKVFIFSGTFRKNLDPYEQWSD
Procedure: as §2, §1

Compound	Relative Vmax (%)* (W1282X-CFTR; Table 1A) [%]	EC50 (W1282X-CFTR; Table 1A, read-out: EC50 (μM))) [µM]	Relative Vmax (%)* (W1282X-CFTR; Table 2) [%]	EC50 (W1282X-CFTR; Table 2, read-out: EC50) [µM]	further results
COc1ccc2[nH]c3c(c2c1)CCNC31CCN(C2CCCCC2)CC1 [Compound A714]	18	> 30	–	–	–
COc1ccc2[nH]c3c(c2c1)CCNC31CCN(Cc2ccc(F)c(F)c2F)CC1 [Compound 2g, 6′-Methoxy-1-(2,3,4-trifluorobenzyl)-2′,3′,4′,9′-tetrahydrospiro[piperidine-4,1′-pyrido[3,4-b]indole]]	–	–	–	–	EC50 (N1303K-CFTR): 4.1 µM; Relative Vmax (%)* (N1303K-CFTR): 100%
COc1ccc2[nH]c3c(c2c1)CCNC31CCN(Cc2ccc(F)c(F)c2)CC1 [Compound A662]	100	2.6	–	–	–
COc1ccc2cc3c(N)nn(C(=O)c4ccc(F)cc4Cl)c3nc2c1 [Compound D018]	–	–	92	2.4	–
O=c1cc(-c2ccc(O)cc2)oc2cc(O)cc(O)c12 [apigenin]	–	–	–	–	short-circuit current response when added after VX-770 (Q1313X-CFTR): showed synergy; short-circuit current response when added after GLPG1837 (Q1313X-CFTR; 20 μM GLPG1837): showed synergy
COc1cccc(CN2CCC3(CC2)NCCc2c3[nH]c3ccccc23)c1 [Compound A534]	24	13	–	–	–
COc1ccc2cc3c(N)nn(C(=O)c4ccc(F)cc4)c3nc2c1 [Compound D010]	–	–	24	3.6	–
Cc1ccc2cc3c(N)nn(C(=O)c4ccc(F)cc4)c3nc2c1 [Compound D136]	–	–	11	18	–
O=C(c1ccccc1)N1CCC2(CC1)NCCc1c2[nH]c2ccccc12 [Compound A815]	−4	> 30	–	–	–
COc1ccc2c3c([nH]c2c1)C1(CCN(Cc2ccc(F)cc2F)CC1)NCC3 [Compound 5d, 1-(2,4-Difluorobenzyl)-7′-methoxy-2′,3′,4′,9′-tetrahydrospiro[piperidine-4,1′-pyrido[3,4-b]indole]]	–	–	–	–	EC50 (N1303K-CFTR): 2.4 µM; Relative Vmax (%)* (N1303K-CFTR): 100%
COc1ccc2cc3c(N)nn(C(=O)c4ccc(Cl)c([N+](=O)[O-])c4)c3nc2c1 [Compound D036]	–	–	11	> 30	–
COc1ccc2cc3c(N)nn(C(=O)c4ccc([N+](=O)[O-])c(C)c4)c3nc2c1 [Compound D025]	–	–	3	> 30	–
COc1cccc(CN2CCC3(CC2)c2[nH]c4ccccc4c2CCN3C)c1 [Compound A600]	4	> 30	–	–	–
Cc1cc(C)cc(N(Cc2ccc(Cl)cc2)S(=O)(=O)c2cccn3c(C)nnc23)c1 [W1282Xpot-C01, reference compound]	–	–	–	–	short-circuit current response when added after VX-770 (N1303K-CFTR): activated N1303K-CFTR; activation by two Class II potentiators added together (N1303K-CFTR; W1282Xpot-C01 and ASP-11, 20 μM each, no Class I potentiator): little activation
Fc1ccc(CN2CCC3(CC2)NCCc2c3[nH]c3ccc(Cl)cc23)c(F)c1 [Compound 5c, 6′-Chloro-1-(2,4-difluorobenzyl)-2′,3′,4′,9′-tetrahydrospiro[piperidine-4,1′-pyrido[3,4-b]indole]]	–	–	–	–	EC50 (N1303K-CFTR): 2.5 µM; Relative Vmax (%)* (N1303K-CFTR): 89%
c1ccc(CN2CCC3(CC2)NCCc2c3[nH]c3ccccc23)cc1 [Compound A357]	31	16	–	–	–

Compound	Relative Vmax (%)* (W1282X-CFTR; Table 1A) [%]	EC50 (W1282X-CFTR; Table 1A, read-out: EC50 (μM))) [µM]	Relative Vmax (%)* (W1282X-CFTR; Table 2) [%]	EC50 (W1282X-CFTR; Table 2, read-out: EC50) [µM]	further results
COc1ccc2[nH]c3c(c2c1)CCNC31CCN(Cc2ccc(F)c(Cl)c2F)CC1 [Compound 1j, 1-(3-Chloro-2,4-difluorobenzyl)-6′-methoxy-2′,3′,4′,9′-tetrahydrospiro[piperidine-4,1′-pyrido[3,4-b]indole]]	–	–	–	–	EC50 (N1303K-CFTR): 4.5 µM; Relative Vmax (%)* (N1303K-CFTR): 120%
COc1ccc2[nH]c3c(c2c1)CCNC31CCN(S(C)(=O)=O)CC1 [Compound A145]	7	> 30	–	–	–
COc1ccc2cc3c(N)nn(C(=O)c4ccncc4)c3nc2c1 [Compound D003]	–	–	1	> 30	–
COc1ccc2cc3c(N)nn(C(=O)c4ccc([N+](=O)[O-])cc4Cl)c3nc2c1 [Compound D038]	–	–	100	1.7	–
COc1ccc2[nH]c3c(c2c1)CCNC31CCN(Cc2c(F)c(F)c(F)c(F)c2F)CC1 [Compound 2e, 6′-Methoxy-1-((perfluorophenyl)methyl)-2′,3′,4′,9′-tetrahydrospiro[piperidine-4,1′-pyrido[3,4-b]indole]]	–	–	–	–	EC50 (N1303K-CFTR): 2.1 µM; Relative Vmax (%)* (N1303K-CFTR): 134%
COc1ccc2cc3c(N)nn(C(=O)Cc4ccc([N+](=O)[O-])cc4)c3nc2c1 [Compound D086]	–	–	3	> 30	–
COc1ccc2[nH]c3c(c2c1)CCNC31CCN(Cc2cc(F)c(F)c(F)c2)CC1 [Compound 2d, 6′-Methoxy-1-(3,4,5-trifluorobenzyl)-2′,3′,4′,9′-tetrahydrospiro[piperidine-4,1′-pyrido[3,4-b]indole]]	–	–	–	–	EC50 (N1303K-CFTR): 2.6 µM; Relative Vmax (%)* (N1303K-CFTR): 121%
COc1ccc2cc3c(N)nn(C(=O)c4cc(OC)c(OC)c(OC)c4)c3nc2c1 [Compound D012]	–	–	3	> 30	–
COc1ccc2nc3c(cc2c1)c(N)nn3C(=O)c1ccc([N+](=O)[O-])cc1Cl [Compound D138]	–	–	21	3.4	–
CCC(=O)N1CCC2(CC1)NCCc1c2[nH]c2ccc(OC)cc12 [Compound A350]	7	> 30	–	–	–
COc1ccc2cc3c(N)nn(C(=O)Cc4ccc([N+](=O)[O-])cc4)c3nc2c1 [Compound D035]	–	–	1	> 30	–
COc1ccc2[nH]c3c(c2c1)CCNC31CCN(C(=O)Cc2ccccc2)CC1 [Compound A956]	6	> 30	–	–	–
CC(C)c1ccc(NC(=O)C(c2ccccc2)N(C)C(=O)Cc2c[nH]c3ccccc23)cc1 (centres unmarked) [Compound P2, N-methyl-N-[2-[[4-(1-methylethyl)phenyl]amino]-2-oxo-1-phenylethyl]-1H-indole-3-acetamide, reference compound]	–	–	–	–	short-circuit current response when added after VX-770 (Q1313X-CFTR): did not elevate current; short-circuit current response when added after VX-770 (N1303K-CFTR): did not further increase current
COc1ccc2[nH]c3c(c2c1)CCNC31CCN(C)CC1 [Compound A764]	6	> 30	–	–	–
COc1ccc2[nH]c3c(c2c1)CCNC31CCN(Cc2scnc2C)CC1 [Compound A666]	91	5.1	–	–	–
